This note sets out measurements from patent publication US7211572B2 (Japan Tobacco Inc., priority 2003, dated 2007).

The target in this experiment is T1, HIV integrase (Human immunodeficiency virus type 1 group M subtype B, UniProt P12497, F1332H).
T1 construct: HIV integrase full length gene; made in house; host or cells: Escherichia coli BL21(DE3), plasmid pET21a-INH
Kind of experiment: Determination of enzyme (HIV integrase) inhibitory activity. Format: biochemical. The note with it: recombinant HIV integrase (F185H), strand transfer ELISA, absorbance at 450 nm. The essentials:
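Full-length integrase with F185H, expressed in E. coli and purified, was reacted for 60 min at 37 °C with compound and biotinylated donor DNA bound to streptavidin plates. Target DNA was added for 10 min, then anti-digoxigenin-peroxidase detection at A450; IC50 from % inhibition versus enzyme-free blank.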
A general note: An ELISA detects its analyte on a solid surface through an enzyme-linked reagent.

A word on the IC50: it is the point on the concentration scale where inhibition reaches its midpoint.

SMILES strings stand for the structures. Counter-ions that a name gives are not always drawn.

On to `O=c1c(Sc2ccccc2)cn2ccn(Cc3cccc(Cl)c3)c(=O)c2c1O` [Example 235, 2-(3-chlorobenzyl)-9-hydroxy-7-phenylsulfanyl-2H-pyrido [1,2-a]pyrazine-1,8-dione], for which the IC50 lay within 0.01 to 0.1 µM. As to `O=c1c([S+]([O-])c2ccccc2)cn2ccn(Cc3cccc(Cl)c3)c(=O)c2c1O` (centres unmarked) [Example 236, 7-benzenesulfinyl-2-(3-chlorobenzyl)-9-hydroxy-2H-pyrido[1,2-a]pyrazine-1,8-dione], the IC50 lay within 0.01 to 0.1 µM. To `O=c1c(S(=O)(=O)c2ccccc2)cn2ccn(Cc3cccc(Cl)c3)c(=O)c2c1O` [Example 237, 7-benzenesulfonyl-2-(3-chlorobenzyl)-9-hydroxy-2H-pyrido [1,2-a]pyrazine-1,8-dione] belongs 0.01 to 0.1 µM; to `CC(C)(C)C(=O)c1cn2c(c(O)c1=O)C(=O)N(Cc1ccc(Cl)c(Cl)c1)CC2` [Example 238, 2-(3,4-dichlorobenzyl)-7-(2,2-dimethylpropionyl)-9-hydroxy-3,4-dihydro-2H-pyrido[1,2-a]pyrazine-1,8-dione], less than 0.01 µM; to `CC(C)C(=O)Nc1cn2ccn(Cc3cccc(Cl)c3)c(=O)c2c(O)c1=O` [Example 239, N-[2-(3-chlorobenzyl)-9-hydroxy-1,8-dioxo-1,8-dihydro-2H-pyrido[1,2-a]pyrazin-7-yl]isobutyramide], less than 0.01 µM. Then `CC(=O)Nc1cn2ccn(Cc3ccc(F)c(Cl)c3)c(=O)c2c(O)c1=O` [Example 240, N-[2-(3-chloro-4-fluorobenzyl)-9-hydroxy-1,8-dioxo-1,8-dihydro-2H-pyrido[1,2-a]pyrazin-7-yl]acetamide], with less than 0.01 µM. Take `CC(C)(C)C(=O)c1cn2c(CO)cn(Cc3ccc(F)c(Cl)c3)c(=O)c2c(O)c1=O` [Example 241, 2-(3-chloro-4-fluorobenzyl)-7-(2,2-dimethylpropionyl)-9-hydroxy-4-hydroxymethyl-2H-pyrido[1,2-a]pyrazine-1,8-dione hydrochloride]: the IC50 is less than 0.01 µM.

As to `CCC(=O)Nc1cn2ccn(Cc3cccc(Cl)c3)c(=O)c2c(O)c1=O` [Example 242, N-[2-(3-chlorobenzyl)-9-hydroxy-1,8-dioxo-1,8-dihydro-2H-pyrido[1,2-a]pyrazin-7-yl]propionamide], the IC50 is less than 0.01 µM. On to `O=C(Cc1ccccc1)Nc1cn2ccn(Cc3cccc(Cl)c3)c(=O)c2c(O)c1=O` [Example 243, N-[2-(3-chlorobenzyl)-9-hydroxy-1,8-dioxo-1,8-dihydro-2H-pyrido[1,2-a]pyrazin-7-yl]-2-phenylacetamide], for which the half-maximal inhibitory concentration (IC50) was less than 0.01 µM. To `CC(=O)c1cn2ccn(Cc3ccc(F)c(Cl)c3)c(=O)c2c(O)c1=O` [Example 244, 7-acetyl-2-(3-chloro-4-fluorobenzyl)-9-hydroxy-2H-pyrido[1,2-a]pyrazine-1,8-dione hydrochloride] belongs less than 0.01 µM; to `CSc1cn2ccn(Cc3cccc(Cl)c3)c(=O)c2c(O)c1=O` [Example 245, 2-(3-chlorobenzyl)-9-hydroxy-7-methylsulfanyl-2H-pyrido[1,2-a]pyrazine-1,8-dione], 0.01 to 0.1 µM; to `CS(=O)(=O)c1cn2ccn(Cc3cccc(Cl)c3)c(=O)c2c(O)c1=O` [Example 246, 2-(3-chlorobenzyl)-9-hydroxy-7-methanesulfonyl-2H-pyrido[1,2-a]pyrazine-1,8-dione], 0.01 to 0.1 µM. To `C[S+]([O-])c1cn2ccn(Cc3cccc(Cl)c3)c(=O)c2c(O)c1=O` (centres unmarked) [Example 247, 2-(3-chlorobenzyl)-9-hydroxy-7-methanesulfinyl-2H-pyrido[1,2-a]pyrazine-1,8-dione] belongs 0.01 to 0.1 µM; to `Cc1cnc(-c2cn3c(c(O)c2=O)C(=O)N(Cc2cccc(Cl)c2)CC3)s1` [Example 248, 2-(3-chlorobenzyl)-9-hydroxy-7-(5-methylthiazol-2-yl)-3,4-dihydro-2H-pyrido[1,2-a]pyrazine-1,8-dione], less than 0.01 µM. Then `O=C1c2c(O)c(=O)c(-c3nccs3)cn2CCN1Cc1ccc(Cl)c(Cl)c1` [Example 249, 2-(3,4-dichlorobenzyl)-9-hydroxy-7-(thiazol-2-yl)-3,4-dihydro-2H-pyrido[1,2-a]pyrazine-1,8-dione], with less than 0.01 µM; and `O=c1ccn2ccn(Cc3ccc(F)cc3)c(=O)c2c1O` [Example 250, 2-(4-fluorobenzyl)-9-hydroxy-2H-pyrido[1,2-a]pyrazine-1,8-dione hydrochloride], with 0.01 to 0.1 µM.

Turning to `CC(C)(C)C(=O)c1cn2ccn(Cc3ccc(F)cc3)c(=O)c2c(O)c1=O` [Example 251, 7-(2,2-dimethylpropionyl)-2-(4-fluorobenzyl)-9-hydroxy-2H-pyrido[1,2-a]pyrazine-1,8-dione hydrochloride], the IC50 was less than 0.01 µM.

Consider `O=c1c(-c2nccs2)cn2ccn(Cc3ccc(F)cc3)c(=O)c2c1O` [Example 252, 2-(4-fluorobenzyl)-9-hydroxy-7-(thiazol-2-yl)-2H-pyrido[1,2-a]pyrazine-1,8-dione hydrochloride], for which the IC50 was less than 0.01 µM. With `CNC(=O)c1cn2ccn(Cc3ccc(F)cc3)c(=O)c2c(O)c1=O` [Example 253, N-methyl-2-(4-fluorobenzyl)-9-hydroxy-1,8-dioxo-1,8-dihydro-2H-pyrido[1,2-a]pyrazine-7-carboxamide], the IC50 is less than 0.01 µM.

As to `CC(C)(C)C(=O)c1cn2ccn(CCCc3c(F)cccc3Cl)c(=O)c2c(O)c1=O` [Example 254, 2-[3-(2-chloro-6-fluorophenyl)propyl]-7-(2,2-dimethylpropionyl)-9-hydroxy-2H-pyrido[1,2-a]pyrazine-1,8-dione hydrochloride], the IC50 was less than 0.01 µM. To `Cc1csc(-c2cn3c(c(O)c2=O)C(=O)N(Cc2cccc(Cl)c2)CC3)n1` [Example 255, 2-(3-chlorobenzyl)-9-hydroxy-7-(4-methylthiazol-2-yl)-3,4-dihydro-2H-pyrido[1,2-a]pyrazine-1,8-dione] belongs less than 0.01 µM. As to `CCCC(=O)Nc1cn2ccn(Cc3cccc(Cl)c3)c(=O)c2c(O)c1=O` [Example 256, N-[2-(3-chlorobenzyl)-9-hydroxy-1,8-dioxo-1,8-dihydro-2H-pyrido[1,2-a]pyrazin-7-yl]butyramide], the IC50 was less than 0.01 µM. As for `O=C(Nc1cn2ccn(Cc3cccc(Cl)c3)c(=O)c2c(O)c1=O)c1ccccc1` [Example 257, N-[2-(3-chlorobenzyl)-9-hydroxy-1,8-dioxo-1,8-dihydro-2H-pyrido[1,2-a]pyrazin-7-yl]benzamide], the IC50 was less than 0.01 µM. As for `O=C(CCc1ccccc1)Nc1cn2ccn(Cc3cccc(Cl)c3)c(=O)c2c(O)c1=O` [Example 258, N-[2-(3-chlorobenzyl)-9-hydroxy-1,8-dioxo-1,8-dihydro-2H-pyrido[1,2-a]pyrazin-7-yl]-3-phenylpropionamide], the IC50 was less than 0.01 µM. As to `CC(=O)N(C)c1cn2ccn(Cc3cccc(Cl)c3)c(=O)c2c(O)c1=O` [Example 259, N-[2-(3-chlorobenzyl)-9-hydroxy-1,8-dioxo-1,8-dihydro-2H-pyrido[1,2-a]pyrazin-7-yl]-N-methylacetamide], the IC50 was less than 0.01 µM.

For `COCC(=O)Nc1cn2ccn(Cc3cccc(Cl)c3)c(=O)c2c(O)c1=O` [Example 260, N-[2-(3-chlorobenzyl)-9-hydroxy-1,8-dioxo-1,8-dihydro-2H-pyrido[1,2-a]pyrazin-7-yl]-2-methoxyacetamide], the IC50 was less than 0.01 µM.
